The values below come from US6331548A, “1-cycloalkyl-1,8-naphthyridin-4-one derivative as type IV phosphodiesterase inhibitor” (Suntory Limited, priority 1998, dated 2001).

The structures appear in SMILES notation. pIC50: −log10 of the molar value.

Experiment [1] concerns TNF-α production by LPS stimulated macrophages. The experiment is described as follows: TNF-α production inhibitory activity by LPS stimulated macrophages. The settings on record: Macrophage, BALB/c mouse peritoneal macrophages, cultured for 8 hours, ELISA. The class given is cell-based. On the procedure:
The following assay was used to evaluate the ability of the compound of the present invention to suppress TNF-α production by LPS stimulated macrophages according to Immunopharmacol. 29, 121-127 (1995).
1) 6 to 10 week old female BALB/c mice were used, 2 ml portions of thioglycolate were intraperitoneally administered, and the abdominal cavities were washed by 10 ml of PBS after 4 days, whereby 1 to 2×10^7 peritoneal cells were obtained per mouse. These were suspended in a hemocyte solution (0.75% ammonium chloride, 17 mM tris-hydrochlorate buffer, pH7.2), centrifuged, then resuspended in an RPMI1640 medium including 10% fetal calf serum and seeded in a 96-well cell culture plate at a density of 1×10^5 cells/50 μl/well. Since these cells adhered strongly to the tissue culture plate and were positive in nonspecific esterase staining, they were used for the test as mouse peritoneal macrophages. Mouse peritoneal macrophages were precultured overnight at 37° C. in […] for the experiment.
2) E. Coli (serum type 055:B5) derived LPS was dissolved in PBS in a concentration of 1 mg/ml, then sterilized by filtration. The test compound was dissolved in DMSO to make a 1000-fold concentration solution of the final concentration of use. 10 μl of the above LPS stock solution (final concentration 10 μg/ml) and 1 μl of the tested substance stock solution were added and mixed in 0.5 ml of RPMI1640 medium containing 10% fetal calf serum. This was added to the above cells at 50 μl/well and cultured for 8 hours. The cultured supernatant was recovered from each well and the TNF-α concentration was measured by the ELISA method (Cytoscreen® Immunoassay Kit Mouse TNF-α, BioSourse International).
The comparative example was the compound described in WO-A-97-04775, Example 1, mentioned above.
A general note: An ELISA detects its analyte on a solid surface through an enzyme-linked reagent.

Experiment [2] has as its target type IV phosphodiesterase. The experiment is described as follows: Type IV phosphodiesterase inhibiting activity. Conditions: U937 type IV phosphodiesterase fraction, 0.28 μM cAMP, pH 7.5, 30° C., 30 minutes; read-out: PDEIV-IC50. The class given is biochemical, human. On the procedure: The following assay was used to evaluate the ability of the compound of the present invention to suppress type IV phosphodiesterase, according to Biochemical. Pharmacol. 48 (6), 1219-1223 (1994).
1) Type IV phosphodiesterase activity fractions were prepared as follows. Namely, human histiocytic lymphoma cell line U937 was cultured in an RPMI1640 medium containing 10% fetal calf serum to obtain 10^9 cells of U937. The cells were recovered by centrifugation and suspended in 40 ml of buffer A (20 mM bis-tris, 5 mM 2-mercaptoethanol, 2 mM benzamidine, 2 mM EDTA, 0.1 mM 4-(2-aminoethyl)benzensulfonyl hydrochloride, 50 mM sodium acetate, pH=6.5). The cells were broken by a sonication and centrifuged (4° C., 10,000 G, 10 minutes) to obtain a supernatant. This was filtered by a 0.45 μm filter to obtain the soluble fraction.
2) The soluble fraction obtained was applied into a 1×10 cm DEAE Sepharose column equalibrated with the buffer A. 120 ml of the buffer A containing a linear gradient solution of 0.05 to 1M sodium acetate was used to separate the phosphodiesterase and recover 24 5-ml fractions. Each of the fractions was measured for the cAMP phosphodiesterase activity.
3) The test compound was reacted at a desired concentration in a reaction mixture containing 20 mM tris-HCl (pH 7.5), 1 mM MgCl2, 100 μM EDTA, 330 μg/ml calf serum albumin, 10 μg/ml 5'-nucleotidase, 0.4 μCi ^3 H-cAMP (0.28 μM cAMP) and the type IV phosphodiesterase stored solution at 30° C. for 30 minutes. QAE-Sephadex suspended in 10 mM of hepes-Na (pH -7.0) was added to the reaction mixture which was then allowed to stand for 5 minutes, then the supernatant was obtained, QAE-Sephadex was further added, to the supernatant, and was allowed to stand for 5 minutes, then the supernatant was obtained and measured for radioactivity.

By pIC50 is commonly meant the negative decadic logarithm of the IC50, by convention in mol/L.

As for `O=C(Nc1c(Cl)cncc1Cl)c1cn([C@@H]2CCOC2)c2ncccc2c1=O` [Example 39, N-(3,5-dichloropyridin-4-yl)-1-[(R)-tetrahydro-3-furanyl]-1,4-dihydro[1,8]naphthylidin-4-one-3-carboxamide], the pIC50 in experiment [1] is 5.30; in experiment [2] it was 8.00.
`O=C(Nc1ccncc1)c1cn([C@H]2CCOC2)c2ncccc2c1=O` [Example 43, N-(4-pyridyl)-1-[(S)-tetrahydro-3-furanyl]-1,4-dihydro[1,8]naphthylidin-4-one-3-carboxamide]: the pIC50 in experiment [1] is 5.60; in experiment [2], 6.72.
In the case of `O=C(Nc1c(Cl)cncc1Cl)c1cn(C2CCN(Cc3ccccc3)CC2)c2ncccc2c1=O` [Example 46, N-(3,5-dichloropyridin-4-yl)-1-(benzylpiperidin-4-yl)-1,4-dihydro[1,8]naphthylidin-4-one-3-carboxamide], the values for the negative logarithm of the IC50 (pIC50) in experiment [1] and in experiment [2] were 6.30 and 7.89, respectively.
For `COC(=O)N1CC[C@H](n2cc(C(=O)Nc3c(Cl)cccc3Cl)c(=O)c3cccnc32)C1` [Example 9, (S)-N-(2,6-dichlorophenyl)-1-(1-methoxycarbonylpyrrolidin-3-yl)-1,4-dihydro[1,8]naphthyridin-4-one-3-carboxamide], the negative logarithm of the IC50 (pIC50) in experiment [1] is 7.00; in experiment [2] it was 7.64.
In the case of `O=C(Nc1c(Cl)cncc1Cl)c1cn(C2CC[S+]([O-])CC2)c2ncccc2c1=O` (stereo not drawn) [Example 102 (Sulfoxide), N-(3,5-dichloropyridin-4-yl)-1-(1-oxotetrahydrothiopyran-4-yl)-1,4-dihydro[1,8]naphthylidin-4-one-3-carboxamide], the pIC50 in experiment [1] was 7.15; in experiment [2], 8.29.
Consider `O=C(Nc1c(Cl)cncc1Cl)c1cn(C2CCSCC2)c2ncccc2c1=O` [Example 101, N-(3,5-dichloropyridin-4-yl)-1-(4-tetrahydrothiopyranyl)-1,4-dihydro[1,8]naphthylidin-4-one-3-carboxamide], for which the pIC50 in experiment [1] is 8.52; in experiment [2], 9.40.
The like results for `CNC(=S)N1CC[C@H](n2cc(C(=O)Nc3c(Cl)cncc3Cl)c(=O)c3cccnc32)C1` [Example 19, (S)-N-(3,5-dichloropyridin-4-yl)-1-(1-methylaminothiocarbonylpyrrolidin-3-yl)-1,4-dihydro[1,8]naphthylidin-4-one-3-carboxamide] were, in that order, 8.15 and 8.20.
As for `O=C(Nc1c(Cl)cncc1Cl)c1cn(N2CCOCC2)c2ncccc2c1=O` [Example 107, N-(3,5-dichloropyridin-4-yl)-1-(1-morpholino)-1,4-dihydro[1,8]naphthylidin-4-one-3-carboxamide], the negative-log IC50 (pIC50) in experiment [1] was 8.52; in experiment [2], 9.40.
For the molecule `O=C(Nc1c(Cl)cncc1Cl)c1cn(C2CCS(=O)(=O)CC2)c2ncccc2c1=O` [Example 102 (Sulfon), N-(3,5-dichloropyridin-4-yl)-1-(1,1-dioxotetrahydrothiopyran-4-yl)-1,4-dihydro[1,8]naphthylidin-4-one-3-carboxamide], the pIC50 in experiment [1] was 6.70; in experiment [2], 7.80.
On to `COC(=O)N1CC(n2cc(C(=O)Nc3ccncc3)c(=O)c3cccnc32)C1` [Example 33, N-(4-pyridyl)-1-(1-methoxycarbonylazetidin-3-yl)-1,4-dihydro[1,8]naphthylidin-4-one-3-carboxamide], for which the pIC50 in experiment [1] was 5.30; in experiment [2], 5.70.
Take `O=C(CN1CCC(n2cc(C(=O)Nc3c(Cl)cncc3Cl)c(=O)c3cccnc32)CC1)OCc1ccccc1` [Example 49, benzyl 2-{4-[3-[(3,5-dichloropyridin-4-yl)amino]carbonyl-1,4-dihydro[1,8]naphthylidin-4-one-1-yl]piperidino}acetate]: the negative logarithm of the IC50 (pIC50) is 6.70 in experiment [1] and 7.66 in experiment [2].
As for `O=C(Nc1c(Cl)cncc1Cl)c1cn([C@H]2CC[C@@H](O)CC2)c2ncccc2c1=O` [Example 119, N-(3,5-dichloropyridin-4-yl)-1-(cis-4-hydroxycyclohexyl)-1,4-dihydro[1,8]naphthylidin-4-one-3-carboxamide], the negative-log IC50 (pIC50) is 10.40 in experiment [1] and 9.00 in experiment [2].
